One assay addresses T1, c-Met (Homo sapiens, UniProt P08581).
T1 construct: endogenous in cells; host or cells: A549 cells
Nature of the assay: c-Met cell-based assay (phospho-c-Met ELISA, A549 cells). The conditions noted are these: compound at 100 nM. An outline of the steps: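 Serum-starved A549 cells (NSCLC) pretreated 2 h with compound (0.5 nM to 500 nM), then stimulated 20 min with 20% FBS. Lysates analysed by ELISA for phospho-c-Met and total c-Met with streptavidin-HRP chemiluminescence.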

Assay [1] concerns A549 human non-small cell lung cancer cells. In words: In vivo anti-tumor efficacy, A549 xenograft. The conditions noted are these: Non-small cell lung cancer A549, nu/nu Balb/c mice, n = 2 × 3. The method, then:
(§1) Female (nu/nu) Balb/c athymic mice at 4-6 weeks of age were injected subcutaneously (s.c.) with MDA-MB-231 human breast cancer cells, A549 human non-small cell lung cancer cells, U87-MG human glioblastoma cells, PC-3 human prostate cancer cells, HT-29 human colon cancer, BEL-7404 human hepatocellular carcinoma, or MKN-45 human gastric cancer cells (ATCC, 5×10^6 cells suspended in 100 μl DMEM medium). Treatment was initiated after the tumor mass grown from s.c. implanted tumor cells reached a median volume of 200-400 mm^3. Mice were randomized into groups with three in each group for small-sample efficacy tests such that the median tumor volume is nearly equal among all groups. For large-sample efficacy tests, mice were randomized into groups with thirteen or fourteen in each group. Each group was treated either with compounds (dissolved in 2:1 mixture of PEG400 and 0.01N HCl (v/v)) or without compounds (vehicle only, 2:1 mixture of PEG400 and 0.01N HCl (v/v)) once per day at dose 12.5, 25, 50 or 100 mg/kg by oral gavage. Tumor volumes were assessed at least twice weekly by caliper measurement from the start of treatment. Tumor volume was calculated using the formula ½×L×W^2 (L: length of tumor's long axis, W: length of tumor's short axis). Treatment was applied for at least two weeks or until the tumor volume reaches a size of ˜2500 mm^3 or greater. Mice were humanly sacrificed after the experiment. The efficacy of compounds in reducing tumor growth was assessed by the index Tumor Growth Inhibition (TGI). TGI for a given treatment period was calculated using the group mean tumor volumes according to the formula: TGI=100×(VVehicle—group−VTreatment—group)÷VVehicle—group wherein VVehicle—group represents the mean tumor volume for the group treated with vehicle and VTreatment—group represents the mean tumor volume of the group treated with a compound.

For assay [2], the system named is PC-3 human prostate cancer cells. Nature of the assay: In vivo anti-tumor efficacy, PC-3 xenograft. The conditions noted are these: Prostate cancer PC-3, nu/nu Balb/c mice, n = 2 × 3. The method, then: as §1
Another assay has as its target T2, EPHA2 (Homo sapiens, UniProt P29317).
T2 construct: purchased KINOMEscan service (Ambit Biosciences, San Diego)
Nature of the assay: KINOMEscan competition binding assay, EPHA2. The conditions noted are these: compound at 100 nM; lower number indicates stronger hit. The method, then:
(§2) A standard competition binding assay can be used to test the ability of a compound of this invention on competing with both intended and unintended kinases in vitro. To screen a compound against a large number of human kinases, a competition binding assay with an active-site dependent binding technology was performed by KINOMEscan service (Ambit Biosciences, San Diego, Cal., USA). Three components were combined in this assay—DNA-tagged kinase, immobilized ligand, and the test compound. The ability of the test compound to compete with the immobilized ligand was measured by quantitative PCR of the DNA of the DNA tag. A number of the compounds of this invention were screened at the concentration of 100 nM by this binding assay, and the results were reported as “% Ctrl,” and the lower number indicates stronger “hit” in this matrix.

Assay [3] relates to MKN-45 human gastric cancer cells. Nature of the assay: In vivo anti-tumor efficacy, MKN-45 xenograft. The conditions noted are these: Gastric cancer MKN-45, nu/nu Balb/c mice, 100 mg/kg oral once per day, n = 2 × 3. The method, then: as §1
The next assay has as its target T3, CSF-1R (Homo sapiens, UniProt P07333).
T3 construct: purchased KINOMEscan service (Ambit Biosciences, San Diego)
Nature of the assay: KINOMEscan competition binding assay, CSF-1R. The conditions noted are these: compound at 100 nM; lower number indicates stronger hit. The method, then: as §2

Assay [4] has as its system MDA-MB-231 human breast cancer cells. Nature of the assay: In vivo anti-tumor efficacy, MDA-MB-231 xenograft. To be noted: Breast cancer MDA-MB-231, nu/nu Balb/c mice, 100 mg/kg oral once per day, n = 2 × 3. The method, then:
as §1, with “experiment.” for “experiment. The efficacy of compounds in reducing tumor growth was assessed by the index Tumor Growth Inhibition (TGI). TGI for a given treatment period was calculated using the group mean tumor volumes according to the formula: TGI=100×(VVehicle—group−VTreatment—group)÷VVehicle—group wherein VVehicle—group represents the mean tumor volume for the group treated with vehicle and VTreatment—group represents the mean tumor volume of the group treated with a compound.”
(§3) The efficacy of compounds in reducing tumor growth was assessed by the index Tumor Growth Inhibition (TGI). TGI for a given treatment period was calculated using the group mean tumor volumes according to the formula: TGI=100×(VVehicle—group−VTreatment—group)÷VVehicle—group wherein VVehicle—group represents the mean tumor volume for the group treated with vehicle and VTreatment—group represents the mean tumor volume of the group treated with a compound.

In another assay the target is T4, VEGFR2 (Homo sapiens, UniProt P35968).
T4 construct: expressed in transfected cells; host or cells: CHO cells, pcDNA3.1 plasmid
In words: VEGFR2 cell-based assay (phospho-VEGFR2 ELISA, transfected CHO cells). The conditions noted are these: compound at 100 nM, read-out: % VEGFR2 kinase activity remains. An outline of the steps: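 Serum-starved CHO cells transfected with full-length VEGFR2 treated 2 h with compound (0.5–500 nM), then stimulated with 20% FBS. Lysates analyzed by ELISA for phospho- and total VEGFR2 using streptavidin-HRP chemiluminescence.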

The target in the next assay is T5, c-Kit (Homo sapiens, UniProt P10721).
T5 construct: purchased KINOMEscan service (Ambit Biosciences, San Diego)
Nature of the assay: KINOMEscan competition binding assay, c-Kit. To be noted: compound at 100 nM; lower number indicates stronger hit. As to the method:
as §2

Assay [5] has as its system BEL-7404 human hepatocellular carcinoma. In words: In vivo anti-tumor efficacy, BEL-7404 xenograft. To be noted: Liver cancer BEL-7404, nu/nu Balb/c mice, 50 mg/kg oral once per day, n = 2 × 3. As to the method:
Female (nu/nu) Balb/c athymic mice at 4-6 weeks of age were injected subcutaneously (s.c.) with MDA-MB-231 human breast cancer cells, A549 human non-small cell lung cancer cells, U87-MG human glioblastoma cells, PC-3 human prostate cancer cells, HT-29 human colon cancer, BEL-7404 human hepatocellular carcinoma, or MKN-45 human gastric cancer cells (ATCC, 5×10^6 cells suspended in 100 μl DMEM medium). Treatment was initiated after the tumor mass grown from s.c. implanted tumor cells reached a median volume of 200-400 mm^3. Mice were randomized into groups with three in each group for small-sample efficacy tests such that the median tumor volume is nearly equal among all groups. […] Tumor volumes were assessed at least twice weekly by caliper measurement from the start of treatment. Tumor volume was calculated using the formula ½×L×W^2 (L: length of tumor's long axis, W: length of tumor's short axis). […]
as §3

In a further assay the target is T6, PDGFRβ (Homo sapiens, UniProt P09619).
T6 construct: expressed in transfected cells; host or cells: CHO cells, pcDNA3.1 plasmid
Nature of the assay: PDGFRβ cell-based assay (phospho-PDGFRβ ELISA, transfected CHO cells). The conditions noted are these: compound at 100 nM, read-out: % PDGFRβ kinase activity remains. As to the method:
A standard cell-based assay for PDGFRβ kinase activity can be used to test a compound of this invention and to identify PDGFRβ antagonists.
Specifically, a compound to be tested was first dissolved in DMSO to a concentration of 10 mM and stored at −20° C. The activity of PDGFRβ in cells depends on the phosphorylation level of its intracellular domain induced by the ligand. In order to express PDGFRβ in the cell, full length PDGFRβ sequence was cloned into PC-DNA3.1 vector. The plasmid was then transfected into CHO cells. After 48 hours following the transfection, the expression of PDGFRβ in transfected CHO cells was confirmed by regular western blotting.
To screen the compound of this invention, the ELISA kit (R&D Systems, Minneapolis, Minn., USA) was used. One day before the screening, CHO cells transfected with full length PDGFRβ plasmid were grown in DMEM medium without the presence of serum. On the day of screening, various concentrations of compounds (from 0.5 nM to 500 nM) were added into DMEM medium. Two hours later, 20% of FBS (Fetal Bovine Serum) was added into the medium to stimulate the expression of phosphor-PDGFRβ. Cell lysate from approximately 5×10^5 transfected CHO cells were reacted with anti-phosphor-PDGFRβ or anti-total PDGFRβ antibody in 96 well plates, in the presence of detection antibody, the phosphor-PDGFRβ or total PDGFRβ were detected with Streptavidin-HRP (R&D Systems), followed by chemiluminescent detection.

The next assay concerns HT-1299. Nature of the assay: In vivo anti-tumor efficacy, HT-1299 lung cancer xenograft. To be noted: Lung cancer HT-1299, nu/nu Balb/c mice, 100 mg/kg oral once per day, n = 2 × 3.
Assay [6] has as its system U87-MG human glioblastoma cells. In words: In vivo anti-tumor efficacy, U87-MG xenograft. To be noted: nu/nu Balb/c mice, 100 mg/kg oral once per day, n = 2 × 3. As to the method:
Female (nu/nu) Balb/c athymic mice at 4-6 weeks of age were injected subcutaneously (s.c.) with MDA-MB-231 human breast cancer cells, A549 human non-small cell lung cancer cells, U87-MG human glioblastoma cells, PC-3 human prostate cancer cells, HT-29 human colon cancer, BEL-7404 human hepatocellular carcinoma, or MKN-45 human gastric cancer cells (ATCC, 5×10^6 cells suspended in 100 μl DMEM medium). Treatment was initiated after the tumor mass grown from s.c. implanted tumor cells reached a median volume of 200-400 mm^3. Mice were randomized into groups with three in each group for small-sample efficacy tests such that the median tumor volume is nearly equal among all groups. […] Tumor volumes were assessed at least twice weekly by caliper measurement from the start of treatment. Tumor volume was calculated using the formula ½×L×W^2 (L: length of tumor's long axis, W: length of tumor's short axis). […] The efficacy of compounds in reducing tumor growth was assessed by the index Tumor Growth Inhibition (TGI). TGI for a given treatment period was calculated using the group mean tumor volumes according to the formula: TGI=100×(VVehicle—group−VTreatment—group)÷VVehicle—group wherein VVehicle—group represents the mean tumor volume for the group treated with vehicle and VTreatment—group represents the mean tumor volume of the group treated with a compound.

Structures can show the parent of a compound that is named as a salt.

The values that follow come from patent US8648086B2, “5,6-bicyclic heteroaryl-containing urea compounds as kinase inhibitors” (Ascepion Pharmaceuticals, Inc., priority 2009, dated 2014).

T1 sequence (P08581 25-1390): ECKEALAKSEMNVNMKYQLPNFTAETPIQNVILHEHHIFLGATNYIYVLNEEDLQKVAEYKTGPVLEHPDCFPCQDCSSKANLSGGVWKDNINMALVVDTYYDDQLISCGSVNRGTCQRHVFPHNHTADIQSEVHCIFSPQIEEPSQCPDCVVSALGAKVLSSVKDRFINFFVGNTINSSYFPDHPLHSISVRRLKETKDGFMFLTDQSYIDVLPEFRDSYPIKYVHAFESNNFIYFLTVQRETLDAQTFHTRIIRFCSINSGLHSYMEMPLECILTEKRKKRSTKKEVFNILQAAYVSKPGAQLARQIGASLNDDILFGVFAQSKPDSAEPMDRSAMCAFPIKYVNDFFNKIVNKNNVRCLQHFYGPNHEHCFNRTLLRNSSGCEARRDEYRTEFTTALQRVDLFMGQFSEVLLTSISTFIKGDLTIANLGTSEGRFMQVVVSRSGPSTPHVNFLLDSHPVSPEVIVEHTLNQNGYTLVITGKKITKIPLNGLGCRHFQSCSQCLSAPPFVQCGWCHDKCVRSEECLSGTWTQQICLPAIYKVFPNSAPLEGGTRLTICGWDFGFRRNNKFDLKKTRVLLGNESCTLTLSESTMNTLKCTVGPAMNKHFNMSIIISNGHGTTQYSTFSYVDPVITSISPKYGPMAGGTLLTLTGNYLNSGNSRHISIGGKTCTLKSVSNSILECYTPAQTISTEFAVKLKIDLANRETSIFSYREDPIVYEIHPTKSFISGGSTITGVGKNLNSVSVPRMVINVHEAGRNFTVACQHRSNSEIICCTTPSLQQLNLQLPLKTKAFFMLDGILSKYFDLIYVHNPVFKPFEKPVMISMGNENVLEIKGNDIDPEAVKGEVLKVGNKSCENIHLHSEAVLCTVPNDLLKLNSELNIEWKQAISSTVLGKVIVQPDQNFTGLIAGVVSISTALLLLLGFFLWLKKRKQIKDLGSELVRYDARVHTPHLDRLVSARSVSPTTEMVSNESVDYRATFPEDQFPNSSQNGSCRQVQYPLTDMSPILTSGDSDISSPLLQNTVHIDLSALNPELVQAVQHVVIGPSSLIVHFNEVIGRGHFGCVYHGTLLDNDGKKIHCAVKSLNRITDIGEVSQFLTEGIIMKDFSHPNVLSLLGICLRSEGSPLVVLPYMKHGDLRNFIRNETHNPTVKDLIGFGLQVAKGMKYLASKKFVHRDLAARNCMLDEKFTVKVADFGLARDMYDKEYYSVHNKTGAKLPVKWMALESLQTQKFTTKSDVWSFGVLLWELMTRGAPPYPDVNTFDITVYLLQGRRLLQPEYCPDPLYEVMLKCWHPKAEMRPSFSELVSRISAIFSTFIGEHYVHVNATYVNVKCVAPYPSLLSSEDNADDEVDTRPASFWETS
T4 sequence (P35968 20-1356, species assumed): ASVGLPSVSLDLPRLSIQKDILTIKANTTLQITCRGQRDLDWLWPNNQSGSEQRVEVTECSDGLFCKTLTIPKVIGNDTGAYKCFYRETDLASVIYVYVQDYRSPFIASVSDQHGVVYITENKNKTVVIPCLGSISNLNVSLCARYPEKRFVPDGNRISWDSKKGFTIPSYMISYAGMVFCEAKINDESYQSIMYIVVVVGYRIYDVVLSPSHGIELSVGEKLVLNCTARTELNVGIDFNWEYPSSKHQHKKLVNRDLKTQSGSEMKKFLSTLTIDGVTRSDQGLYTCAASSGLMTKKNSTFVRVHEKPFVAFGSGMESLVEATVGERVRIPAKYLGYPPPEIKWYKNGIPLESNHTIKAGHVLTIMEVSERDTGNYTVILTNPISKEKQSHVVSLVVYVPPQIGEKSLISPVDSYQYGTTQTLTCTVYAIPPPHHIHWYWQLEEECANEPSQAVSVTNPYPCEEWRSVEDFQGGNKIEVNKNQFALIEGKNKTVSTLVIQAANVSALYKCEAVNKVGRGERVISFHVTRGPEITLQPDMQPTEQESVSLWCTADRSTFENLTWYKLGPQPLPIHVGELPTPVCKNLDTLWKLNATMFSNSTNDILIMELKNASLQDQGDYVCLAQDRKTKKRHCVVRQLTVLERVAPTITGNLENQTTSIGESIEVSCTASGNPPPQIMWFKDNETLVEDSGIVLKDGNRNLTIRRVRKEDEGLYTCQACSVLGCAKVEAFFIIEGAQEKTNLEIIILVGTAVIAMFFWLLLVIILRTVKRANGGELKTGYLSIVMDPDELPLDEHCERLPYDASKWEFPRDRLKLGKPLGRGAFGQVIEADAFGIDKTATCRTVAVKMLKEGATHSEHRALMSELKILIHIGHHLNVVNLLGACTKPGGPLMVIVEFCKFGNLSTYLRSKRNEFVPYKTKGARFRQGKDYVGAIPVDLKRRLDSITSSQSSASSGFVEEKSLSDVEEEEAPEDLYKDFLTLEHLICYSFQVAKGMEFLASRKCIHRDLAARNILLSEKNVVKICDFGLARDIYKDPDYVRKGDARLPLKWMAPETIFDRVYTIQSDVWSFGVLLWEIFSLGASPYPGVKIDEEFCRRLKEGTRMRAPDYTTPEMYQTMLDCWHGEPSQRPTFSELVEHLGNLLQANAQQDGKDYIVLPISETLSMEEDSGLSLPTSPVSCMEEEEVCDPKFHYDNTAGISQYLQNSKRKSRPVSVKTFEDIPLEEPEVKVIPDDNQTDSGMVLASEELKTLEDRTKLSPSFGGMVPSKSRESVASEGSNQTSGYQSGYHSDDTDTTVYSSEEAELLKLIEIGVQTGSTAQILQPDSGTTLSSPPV
T6 sequence (P09619 33-1106, species assumed): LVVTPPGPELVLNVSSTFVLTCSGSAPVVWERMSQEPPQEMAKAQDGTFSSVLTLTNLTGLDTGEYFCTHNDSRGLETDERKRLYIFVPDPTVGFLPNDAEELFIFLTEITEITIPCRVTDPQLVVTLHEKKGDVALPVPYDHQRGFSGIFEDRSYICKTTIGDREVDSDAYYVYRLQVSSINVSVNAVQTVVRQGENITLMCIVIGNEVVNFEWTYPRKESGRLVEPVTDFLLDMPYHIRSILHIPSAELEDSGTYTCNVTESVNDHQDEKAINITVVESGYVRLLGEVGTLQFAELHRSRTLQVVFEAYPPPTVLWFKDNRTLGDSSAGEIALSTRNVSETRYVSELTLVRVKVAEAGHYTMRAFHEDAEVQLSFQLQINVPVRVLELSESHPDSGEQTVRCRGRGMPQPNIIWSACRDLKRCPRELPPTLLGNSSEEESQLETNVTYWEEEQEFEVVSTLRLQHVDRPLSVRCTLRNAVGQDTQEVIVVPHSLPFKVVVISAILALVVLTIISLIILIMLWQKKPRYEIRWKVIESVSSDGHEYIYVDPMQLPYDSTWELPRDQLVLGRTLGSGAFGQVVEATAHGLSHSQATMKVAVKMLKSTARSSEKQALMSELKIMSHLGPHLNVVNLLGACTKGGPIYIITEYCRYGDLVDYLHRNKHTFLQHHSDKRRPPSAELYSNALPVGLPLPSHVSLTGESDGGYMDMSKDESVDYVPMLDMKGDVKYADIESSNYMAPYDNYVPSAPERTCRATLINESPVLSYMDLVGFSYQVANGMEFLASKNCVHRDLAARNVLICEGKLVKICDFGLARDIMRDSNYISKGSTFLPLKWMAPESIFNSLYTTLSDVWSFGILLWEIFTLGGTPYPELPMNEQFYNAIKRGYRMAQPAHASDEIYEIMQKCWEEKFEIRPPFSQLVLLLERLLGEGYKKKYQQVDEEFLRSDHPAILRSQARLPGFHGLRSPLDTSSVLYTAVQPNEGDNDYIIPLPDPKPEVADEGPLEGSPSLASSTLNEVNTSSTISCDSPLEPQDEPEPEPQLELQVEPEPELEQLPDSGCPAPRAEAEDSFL
T3 sequence (P07333 20-972): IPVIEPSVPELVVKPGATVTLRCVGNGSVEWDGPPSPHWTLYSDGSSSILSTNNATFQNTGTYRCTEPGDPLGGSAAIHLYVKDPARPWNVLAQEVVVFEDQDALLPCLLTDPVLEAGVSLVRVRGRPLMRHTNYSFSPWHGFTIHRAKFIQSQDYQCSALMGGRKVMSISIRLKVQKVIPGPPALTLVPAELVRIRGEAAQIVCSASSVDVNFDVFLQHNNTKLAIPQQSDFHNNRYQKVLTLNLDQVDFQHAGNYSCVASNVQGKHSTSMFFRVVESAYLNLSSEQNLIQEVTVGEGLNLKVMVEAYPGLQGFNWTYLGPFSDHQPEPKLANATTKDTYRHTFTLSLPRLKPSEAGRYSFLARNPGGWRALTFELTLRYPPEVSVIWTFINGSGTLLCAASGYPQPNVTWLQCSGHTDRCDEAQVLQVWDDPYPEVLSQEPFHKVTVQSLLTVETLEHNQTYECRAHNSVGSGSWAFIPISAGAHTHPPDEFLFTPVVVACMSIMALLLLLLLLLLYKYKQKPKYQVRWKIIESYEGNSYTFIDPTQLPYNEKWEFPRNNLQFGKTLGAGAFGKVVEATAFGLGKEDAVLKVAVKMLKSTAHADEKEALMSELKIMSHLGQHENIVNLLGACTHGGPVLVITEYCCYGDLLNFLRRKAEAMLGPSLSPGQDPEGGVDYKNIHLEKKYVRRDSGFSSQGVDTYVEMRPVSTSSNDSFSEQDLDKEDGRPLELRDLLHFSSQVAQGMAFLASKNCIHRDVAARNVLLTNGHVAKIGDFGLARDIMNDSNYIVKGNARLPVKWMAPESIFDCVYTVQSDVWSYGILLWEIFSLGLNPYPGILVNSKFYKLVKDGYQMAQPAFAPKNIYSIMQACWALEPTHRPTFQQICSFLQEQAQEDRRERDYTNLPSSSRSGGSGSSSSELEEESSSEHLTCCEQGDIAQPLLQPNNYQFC

Turning to `Cc1cccc(NC(=O)Nc2cccc3c2ccn3Cc2ccnc3[nH]ccc23)c1.Cl` [Example 44, 1-(3-Methylphenyl)-3-[1-(1H-pyrrolo[2,3-b]pyridin-4-ylmethyl)-1H-indol-4-yl]urea hydrochloride], the “% c-Met kinase activity remains” value on c-Met is on record as “A (the percentage of kinase activity remains is below 70%)”. Also, the “Tumor Growth Inhibition (TGI)” value in [1] (50 mg/kg oral once per day), in assay [2] (50 mg/kg oral once per day), in [3] and in [4] was “A (the TGI is greater or equal to 50%)” each time. The “EPHA2 % Ctrl” value on EPHA2 was determined as 6 % Ctrl. Besides, the “CSF-1R % Ctrl” value on CSF-1R was 0.8 % Ctrl. Moreover, the remaining activity at 0.1 µM on VEGFR2 is below 70%. Moreover, the “c-Kit % Ctrl” value on c-Kit is 0.35 % Ctrl.
On to `O=C(Nc1cccc(Cl)c1)Nc1cccc2c1ccn2Cc1ccnc2[nH]ccc12` [Example 38, 1-(3-Chlorophenyl)-3-[1-(1H-pyrrolo[2,3-b]pyridin-4-ylmethyl)-1H-indol-4-yl]urea hydrochloride], for which the “% c-Met kinase activity remains” value at c-Met was “A (the percentage of kinase activity remains is below 70%)”. The “Tumor Growth Inhibition (TGI)” value in assay [5] and in assay [4] was “A (the TGI is greater or equal to 50%)” throughout. Moreover, the remaining activity at 0.1 µM on VEGFR2 was below 70%.
On to `COc1ccc(Cl)cc1NC(=O)Nc1cccc2c1CCN2Cc1ccnc2[nH]ccc12.Cl` [Example 1, 1-(2-Methoxyl-5-chlorophenyl)-3-[1-(1H-pyrrolo[2,3-b]pyridin-4-ylmethyl)-2,3-dihydro-1H-indol-4-yl]urea hydrochloride], for which, at c-Met, the “% c-Met kinase activity remains” value was “A (the percentage of kinase activity remains is below 70%)”. Also, the “Tumor Growth Inhibition (TGI)” value in [4] is “A (the TGI is greater or equal to 50%)”. Also, the remaining activity at 0.1 µM at VEGFR2 was below 70%.
For the compound `COc1ccc(Cl)cc1NC(=O)Nc1cccc2c1ccn2Cc1c[nH]c2ncccc12.Cl` [Example 3, 1-(2-Methoxyl-5-chlorophenyl)-3-[1-(1H-pyrrolo[2,3-b]pyridin-3-ylmethyl)-1H-indol-4-yl]urea hydrochloride], at c-Met, the “% c-Met kinase activity remains” value is on record as “A (the percentage of kinase activity remains is below 70%)”. The “Tumor Growth Inhibition (TGI)” value (in [1] (100 mg/kg oral once per day); in [4]; in the assay on HT-1299) was “A (the TGI is greater or equal to 50%)” throughout. Moreover, the remaining activity at 0.1 µM at VEGFR2 is below 70%; at PDGFRβ, at least 70%.
Turning to `COc1ccc(Cl)cc1NC(=O)Nc1cccc2c1ccn2Cc1ccnc2[nH]ccc12.Cl` [Example 2a/2b, 1-(2-Methoxyl-5-chlorophenyl)-3-[1-(1H-pyrrolo[2,3-b]pyridin-4-ylmethyl)-1H-indol-4-yl]urea hydrochloride], the “% c-Met kinase activity remains” value on c-Met is recorded as “A (the percentage of kinase activity remains is below 70%)”. The “Tumor Growth Inhibition (TGI)” value in [1] (100 mg/kg oral once per day), in [2] (100 mg/kg oral once per day), in [3], in [4] and in assay [6] was “A (the TGI is greater or equal to 50%)” each time. The remaining activity at 0.1 µM at VEGFR2 was below 70%.
For `Cl.O=C(Nc1cc(Cl)ccc1F)Nc1cccc2c1ccn2Cc1c[nH]c2ncccc12` [Example 29, 1-(2-Fluoro-5-chlorophenyl)-3-[1-(1H-pyrrolo[2,3-b]pyridin-3-ylmethyl)-1H-indol-4-yl]urea hydrochloride], the “% c-Met kinase activity remains” value at c-Met is “B (the percentage is greater or equal to 70%)”. In addition, the remaining activity at 0.1 µM on VEGFR2 was below 70%; on PDGFRβ it was at least 70%.
